Measured values reported in patent publication US20200187502A1, “MICROBIOCIDAL OXADIAZOLE DERIVATIVES” (SYNGENTA PARTICIPATIONS AG, priority 2017, published 2020).

How the values were obtained:
[1] = system: Puccinia recondita f. Sp. Tritici; experiment: Fungicidal activity, wheat leaf disc preventative (brown rust); type: in vivo; settings: foliar, 200 ppm in the applied formulation, wheat leaf segments cv. Kanzler, compared to untreated control, 7 to 9 days after application, read-out: disease control
Method in brief: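 Preventative leaf-segment test: spray application of diluted formulated compound on wheat cv. Kanzler, spore inoculation after 1 day. Percent control relative to untreated segments rated 7 to 9 days post-application, with incubation at 19° C, 75% relative humidity, 12 h photoperiod.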

[2] = system: Puccinia recondita f. Sp. Tritici; experiment: Fungicidal activity, wheat leaf disc curative (brown rust); type: in vivo; settings: foliar, 200 ppm in the applied formulation, wheat leaf segments cv. Kanzler, curative (applied 1 day after inoculation), compared to untreated control, 6 to 8 days after application, read-out: disease control
Procedure: Leaf disks or leaf segments of various plant species are cut from plants grown in a greenhouse. The cut leaf disks or segments are placed in multiwell plates (24-well format) onto water agar. The leaf disks are sprayed with a test solution before (preventative) or after (curative) inoculation. Compounds to be tested are prepared as DMSO solutions (max. 10 mg/ml) which are diluted to the appropriate concentration with 0.025% Tween20 just before spraying. The inoculated leaf disks or segments are incubated under defined conditions (temperature, relative humidity, light, etc.) according to the respective test system. A single evaluation of disease level is carried out 3 to 14 days after inoculation, depending on the pathosystem. Percent disease control relative to the untreated check leaf disks or segments is then calculated.
Wheat leaf segments cv. Kanzler are placed on agar in multiwell plates (24-well format). The leaf segments are then inoculated with a spore suspension of the fungus. Plates were stored in darkness at 19° C. and 75% relative humidity. The formulated test compound diluted in water was applied 1 day after inoculation. The leaf segments were incubated at 19° C. and 75% relative humidity under a light regime of 12 hours light/12 hours darkness in a climate cabinet and the activity of a compound was assessed as percent disease control compared to untreated when an appropriate level of disease damage appears in untreated check leaf segments (6 to 8 days after application).
The following compounds at 200 ppm in the applied formulation give at least 80% disease control in this test when compared to untreated control leaf disks under the same conditions, which show extensive disease development.

[3] = system: Glomerella lacenarium (Colletotrichum lacenarium); experiment: Fungicidal activity, liquid culture, cucumber preventative (anthracnose); type: cell-based; settings: 20 ppm in the applied formulation, liquid culture in PDB, inhibition of growth measured photometrically 3 to 4 days after application, compared to untreated control, read-out: disease control
Method in brief: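 PDB broth seeded with cryo-stored conidia, added onto compound (DMSO solution) in 96-well plates; 24° C.; photometric growth read at 3–4 d post-application; % inhibition vs untreated check.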

CCCN(CC1CC1)C(=O)N(C)Cc1ccc(-c2noc(C(F)(F)F)n2)s1 [Compound 5.57, 1-(cyclopropylmethyl)-3-methyl-1-propyl-3-[[5-(5-(trifluoromethyl)-1,2,4-oxadiazol-3-yl]-2-thienyl]methyl]urea]
pest or weed control at 200 ppm [1]: ≥ 80%
pest or weed control at 200 ppm [2]: ≥ 80%
inhibition of growth at 20 ppm [3]: ≥ 80%

CCN(Cc1ccc(-c2noc(C(F)(F)F)n2)s1)C(=O)N(CC(F)F)C1CC1 [Compound 5.51, 1-cyclopropyl-1-(2,2-difluoroethyl)-3-ethyl-3-[[5-[5-(trifluoromethyl)-1,2,4-oxadiazol-3-yl]-2-thienyl]methyl]urea]
pest or weed control at 200 ppm [1]: ≥ 80%
pest or weed control at 200 ppm [2]: ≥ 80%
inhibition of growth at 20 ppm [3]: ≥ 80%

COCCCC(=O)N(Cc1ccc(-c2noc(C(F)(F)F)n2)s1)C(C)C [Compound 4.48, N-isopropyl-4-methoxy-N-[[5-[5-(trifluoromethyl)-1,2,4-oxadiazol-3-yl]-2-thienyl]methyl]butanamide]
pest or weed control at 200 ppm [1]: ≥ 80%
pest or weed control at 200 ppm [2]: ≥ 80%
inhibition of growth at 20 ppm [3]: ≥ 80%

O=C(C1CCOC1)N(Cc1ccc(-c2noc(C(F)(F)F)n2)s1)C1CC1 (centres unmarked) [Compound 5.37, N-cyclopropyl-N-[[5-[5-(trifluoromethyl)-1,2,4-oxadiazol-3-yl]-2-thienyl]methyl]tetrahydrofuran-3-carboxamide]
pest or weed control at 200 ppm [1]: ≥ 80%
pest or weed control at 200 ppm [2]: ≥ 80%
inhibition of growth at 20 ppm [3]: ≥ 80%

CC(C)N(Cc1ccc(-c2noc(C(F)(F)F)n2)s1)C(=O)NC1CC1 [Compound 5.59, 3-cyclopropyl-1-isopropyl-1-[[5-[5-(trifluoromethyl)-1,2,4-oxadiazol-3-yl]-2-thienyl]methyl]urea]
pest or weed control at 200 ppm [1]: ≥ 80%
pest or weed control at 200 ppm [2]: ≥ 80%
inhibition of growth at 20 ppm [3]: ≥ 80%

CCC(=O)C(=O)N(Cc1ccc(-c2noc(C(F)(F)F)n2)s1)C1CC1 [Compound 6.56, N-cyclopropyl-2-oxo-N-[[5-[5-(trifluoromethyl)-1,2,4-oxadiazol-3-yl]-2-thienyl]methyl]butanamide]
pest or weed control at 200 ppm [1]: ≥ 80%
pest or weed control at 200 ppm [2]: ≥ 80%
inhibition of growth at 20 ppm [3]: ≥ 80%

CCN(Cc1ccc(-c2noc(C(F)(F)F)n2)s1)C(=O)C(=O)Cc1ccccc1 [Compound 6.43, N-ethyl-2-oxo-3-phenyl-N-[[5-[5-(trifluoromethyl)-1,2,4-oxadiazol-3-yl]-2-thienyl]methyl]propanamide]
pest or weed control at 200 ppm [1]: ≥ 80%
pest or weed control at 200 ppm [2]: ≥ 80%
inhibition of growth at 20 ppm [3]: ≥ 80%

CNS(=O)(=O)N(Cc1ccc(-c2noc(C(F)(F)F)n2)s1)OC [Compound 1.32, 3-[5-[[methoxy(methylsulfamoyl)amino]methyl]-2-thienyl]-5-(trifluoromethyl)-1,2,4-oxadiazole]
pest or weed control at 200 ppm [1]: ≥ 80%
pest or weed control at 200 ppm [2]: ≥ 80%
inhibition of growth at 20 ppm [3]: ≥ 80%

CCN(Cc1ccc(-c2noc(C(F)(F)F)n2)s1)C(=O)C1CCCO1 (centres unmarked) [Compound 5.13, N-ethyl-N-[[5-[5-(trifluoromethyl)-1,2,4-oxadiazol-3-yl]-2-thienyl]methyl]tetrahydrofuran-2-carboxamide]
pest or weed control at 200 ppm [1]: ≥ 80%
pest or weed control at 200 ppm [2]: ≥ 80%
inhibition of growth at 20 ppm [3]: ≥ 80%

CCONC(=O)N(Cc1ccc(-c2noc(C(F)(F)F)n2)s1)OC [Compound 1.55, 3-ethoxy-1-methoxy-1-[[5-[5-(trifluoromethyl)-1,2,4-oxadiazol-3-yl]-2-thienyl]methyl]urea]
pest or weed control at 200 ppm [1]: ≥ 80%
pest or weed control at 200 ppm [2]: ≥ 80%
inhibition of growth at 20 ppm [3]: ≥ 80%

COC(C)C(=O)N(Cc1ccc(-c2noc(C(F)(F)F)n2)s1)C1CC1 (centres unmarked) [Compound 4.14, N-cyclopropyl-2-methoxy-N-[[5-[5-(trifluoromethyl)-1,2,4-oxadiazol-3-yl]-2-thienyl]methyl]propanamide]
pest or weed control at 200 ppm [1]: ≥ 80%
pest or weed control at 200 ppm [2]: ≥ 80%
inhibition of growth at 20 ppm [3]: ≥ 80%

CC(=O)C(=O)N(Cc1ccc(-c2noc(C(F)(F)F)n2)s1)C1CC1 [Compound 6.11, N-cyclopropyl-2-oxo-N-[[5-[5-(trifluoromethyl)-1,2,4-oxadiazol-3-yl]-2-thienyl]methyl]propanamide]
pest or weed control at 200 ppm [1]: ≥ 80%
pest or weed control at 200 ppm [2]: ≥ 80%
inhibition of growth at 20 ppm [3]: ≥ 80%

CN(CC#N)C(=O)N(Cc1ccc(-c2noc(C(F)(F)F)n2)s1)C1CC1 [Compound 4.86, 1-(cyanomethyl)-3-cyclopropyl-1-methyl-3-[[5-[5-(trifluoromethyl)-1,2,4-oxadiazol-3-yl]-2-thienyl]methyl]urea]
pest or weed control at 200 ppm [1]: ≥ 80%
pest or weed control at 200 ppm [2]: ≥ 80%
inhibition of growth at 20 ppm [3]: ≥ 80%

CC(C)N(Cc1ccc(-c2noc(C(F)(F)F)n2)s1)C(=O)C(N)=O [Compound 6.9, N′-isopropyl-N′-[[5-[5-(trifluoromethyl)-1,2,4-oxadiazol-3-yl]-2-thienyl]methyl]oxamide]
pest or weed control at 200 ppm [1]: ≥ 80%
pest or weed control at 200 ppm [2]: ≥ 80%
inhibition of growth at 20 ppm [3]: ≥ 80%

CCN(Cc1ccc(-c2noc(C(F)(F)F)n2)s1)C(=O)C(=O)c1ccccc1 [Compound 6.40, N-ethyl-2-oxo-2-phenyl-N-[[5-[5-(trifluoromethyl)-1,2,4-oxadiazol-3-yl]-2-thienyl]methyl]acetamide]
pest or weed control at 200 ppm [1]: ≥ 80%
pest or weed control at 200 ppm [2]: ≥ 80%
inhibition of growth at 20 ppm [3]: ≥ 80%

CC1(C(=O)N(Cc2ccc(-c3noc(C(F)(F)F)n3)s2)C2CC2)COC1 [Compound 5.41, N-cyclopropyl-3-methyl-N-[[5-[5-(trifluoromethyl)-1,2,4-oxadiazol-3-yl]-2-thienyl]methyl]oxetane-3-carboxamide]
pest or weed control at 200 ppm [1]: ≥ 80%
pest or weed control at 200 ppm [2]: ≥ 80%
inhibition of growth at 20 ppm [3]: ≥ 80%

CCCC(=O)N(Cc1ccc(-c2noc(C(F)(F)F)n2)s1)C(C)C [Compound 4.44, N-isopropyl-N-[[5-[5-(trifluoromethyl)-1,2,4-oxadiazol-3-yl]-2-thienyl]methyl]butanamide]
pest or weed control at 200 ppm [1]: ≥ 80%
pest or weed control at 200 ppm [2]: ≥ 80%
inhibition of growth at 20 ppm [3]: ≥ 80%

CN(Cc1ccc(-c2noc(C(F)(F)F)n2)s1)C(=O)N1CCC2(CC2)C1 [Compound 5.55, N-methyl-N-[[5-[5-(trifluoromethyl)-1,2,4-oxadiazol-3-yl]-2-thienyl]methyl]-5-azaspiro[2.4]heptane-5-carboxamide]
pest or weed control at 200 ppm [1]: ≥ 80%
pest or weed control at 200 ppm [2]: ≥ 80%
inhibition of growth at 20 ppm [3]: ≥ 80%

O=C(C1CC1(F)F)N(Cc1ccc(-c2noc(C(F)(F)F)n2)s1)C1CC1 (centres unmarked) [Compound 5.42, N-cyclopropyl-2,2-difluoro-N-[[5-[5-(trifluoromethyl)-1,2,4-oxadiazol-3-yl]-2-thienyl]methyl]cyclopropanecarboxamide]
pest or weed control at 200 ppm [1]: ≥ 80%
pest or weed control at 200 ppm [2]: ≥ 80%
inhibition of growth at 20 ppm [3]: ≥ 80%

CCN(Cc1ccc(-c2noc(C(F)(F)F)n2)s1)C(=O)C1(C)CC1 [Compound 5.12, N-ethyl-1-methyl-N-[[5-[5-(trifluoromethyl)-1,2,4-oxadiazol-3-yl]-2-thienyl]methyl]cyclopropanecarboxamide]
pest or weed control at 200 ppm [1]: ≥ 80%
pest or weed control at 200 ppm [2]: ≥ 80%
inhibition of growth at 20 ppm [3]: ≥ 80%

CCN(Cc1ccc(-c2noc(C(F)(F)F)n2)s1)C(=O)C1CC1(F)F (centres unmarked) [Compound 5.15, N-ethyl-2,2-difluoro-N-[[5-[5-(trifluoromethyl)-1,2,4-oxadiazol-3-yl]-2-thienyl]methyl]cyclopropanecarboxamide]
pest or weed control at 200 ppm [2]: ≥ 80%
inhibition of growth at 20 ppm [3]: ≥ 80%

CON(Cc1ccc(-c2noc(C(F)(F)F)n2)s1)C(=O)N1CCCO1 [Compound 1.57, N-methoxy-N-[[5-[5-(trifluoromethyl)-1,2,4-oxadiazol-3-yl]-2-thienyl]methyl]isoxazolidine-2-carboxamide]
pest or weed control at 200 ppm [2]: ≥ 80%
inhibition of growth at 20 ppm [3]: ≥ 80%

CC(C)N(Cc1ccc(-c2noc(C(F)(F)F)n2)s1)C(=O)C1CCC1 [Compound 5.29, N-isopropyl-N-[[5-[5-(trifluoromethyl)-1,2,4-oxadiazol-3-yl]-2-thienyl]methyl]cyclobutanecarboxamide]
pest or weed control at 200 ppm [2]: ≥ 80%
inhibition of growth at 20 ppm [3]: ≥ 80%

CCC(C)C(=O)N(Cc1ccc(-c2noc(C(F)(F)F)n2)s1)C1CC1 (centres unmarked) [Compound 4.57, N-cyclopropyl-2-methyl-N-[[5-[5-(trifluoromethyl)-1,2,4-oxadiazol-3-yl]-2-thienyl]methyl]butanamide]
pest or weed control at 200 ppm [2]: ≥ 80%
inhibition of growth at 20 ppm [3]: ≥ 80%
